Assays:
[1] = tested on: HDACs from Hela cell nuclear extract; format: biochemical; settings: HeLa cell nuclear extract; tested at 10 μM and 25 μM; FIG. 2B
Procedure: (§1) FIGS. 2A-2F show measurement of intrinsic and in situ HDACi activities. […] IC50 values were calculated from nonlinear regression plots using GraphPad Prism5 software. […] Recombinant HDAC6 was incubated with each drug at the indicated concentrations. IC50 values were calculated from nonlinear regression plots using GraphPad Prism5 software.
(§2) HDAC activity assay. In vitro HDAC inhibition was measured by using the HDAC fluorimetric assay/drug discovery Kit (Enzo Life Sciences, BML-AK500) and the HDAC6 fluorometric drug discovery kit (Enzo Life Sciences, BML-AK516) following the manufacturer's protocols and instructions. IC50 values were calculated from nonlinear […] plots using GraphPad Prism5 software.
(§3) HDAC1 and HDAC2 are enriched in nuclear extracts whereas HDAC6 is a cytosolic enzyme that is the principal modulator of the acetylation status of Hsp90. […] Again, TSA served as the positive control in FIG. 2D.

human recombinant HDAC6 = target: T1, human recombinant HDAC6 (Homo sapiens, UniProt Q9UBN7); assay: HDAC6 fluorometric assay, recombinant enzyme; format: biochemical; settings: tested at 10 μM and 25 μM; FIG. 2D
T1 construct: purchased Enzo Life Sciences BML-AK516
T1 sequence (Q9UBN7 1-1215): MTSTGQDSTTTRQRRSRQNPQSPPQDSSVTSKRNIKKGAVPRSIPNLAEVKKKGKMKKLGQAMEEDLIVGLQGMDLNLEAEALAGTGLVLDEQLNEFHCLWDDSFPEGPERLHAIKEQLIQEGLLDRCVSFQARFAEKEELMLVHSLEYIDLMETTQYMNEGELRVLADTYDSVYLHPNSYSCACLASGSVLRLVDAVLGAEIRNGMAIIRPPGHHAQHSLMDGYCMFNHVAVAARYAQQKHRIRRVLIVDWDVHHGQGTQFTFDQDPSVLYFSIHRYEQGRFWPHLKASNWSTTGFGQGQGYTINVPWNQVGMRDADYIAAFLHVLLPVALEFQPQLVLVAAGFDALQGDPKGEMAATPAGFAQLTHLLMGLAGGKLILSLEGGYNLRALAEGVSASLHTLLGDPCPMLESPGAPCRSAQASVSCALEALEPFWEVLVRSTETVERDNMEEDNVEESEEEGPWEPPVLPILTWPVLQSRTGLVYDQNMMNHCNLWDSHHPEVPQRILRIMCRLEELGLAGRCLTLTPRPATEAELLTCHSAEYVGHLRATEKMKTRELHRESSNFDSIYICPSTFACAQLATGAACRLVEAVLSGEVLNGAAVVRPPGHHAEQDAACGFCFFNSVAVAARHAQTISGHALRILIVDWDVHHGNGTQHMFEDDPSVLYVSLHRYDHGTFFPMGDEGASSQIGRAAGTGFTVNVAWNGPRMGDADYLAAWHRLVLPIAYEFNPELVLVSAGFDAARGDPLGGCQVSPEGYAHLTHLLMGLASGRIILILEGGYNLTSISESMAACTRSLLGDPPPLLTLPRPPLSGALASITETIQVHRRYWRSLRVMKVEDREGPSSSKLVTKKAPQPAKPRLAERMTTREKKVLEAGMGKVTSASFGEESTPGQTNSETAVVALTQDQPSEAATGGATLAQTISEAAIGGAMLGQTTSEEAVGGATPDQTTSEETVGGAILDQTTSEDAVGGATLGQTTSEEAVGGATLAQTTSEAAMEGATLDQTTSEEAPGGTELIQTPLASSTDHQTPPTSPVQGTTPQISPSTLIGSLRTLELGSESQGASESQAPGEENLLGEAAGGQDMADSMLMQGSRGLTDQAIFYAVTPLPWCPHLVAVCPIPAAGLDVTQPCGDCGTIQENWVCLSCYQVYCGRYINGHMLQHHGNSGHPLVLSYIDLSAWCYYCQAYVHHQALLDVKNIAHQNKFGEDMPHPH
Procedure: as §1, §2, §3

C4-2 cells = assay: MTT cell viability assay, C4-2 cells; format: cell-based
Procedure: (§4) (6A) C4-2 cells were seeded in 96-well plates and 24 h later, they were treated with the indicated compounds (0.1 μM-10 μM) or with vehicle (DMSO). Cell viability was measured by the MTT assay on Days 0 and 3 of treatment. EC50 values were calculated from nonlinear regression plots using GraphPad Prism5 software. […] Cell viability was measured by the MTT assay on Days 0 and 3 of treatment. […] Cell viability was measured by the MTT assay on Days 0 and 3 of treatment. […] (6D) 22Rv1 cells were infected with AR shRNA lentivirus, or control shRNA. 72 h after infection, cells were plated and viable cells were measured by the MTT assay on the indicated days (6D, bottom). Cells were also harvested for western blot analysis and probed with antibody to AR, which was also reactive with the AR splice variant AR-V7 (6D, top). (6E) 22Rv1 cells were seeded in 96-well plates and 24 h later, they were treated with the indicated compounds (0.1 μM-10 μM) or with vehicle (DMSO). Cell viability was measured by the MTT assay on Days 0 and 3 of treatment. EC50 values were calculated from nonlinear regression plots using GraphPad Prism5 software.
(§5) Cell Proliferation Assay. Cells were trypsinized and 6000 cells/well were seeded in 96-well plates coated with poly-D-lysine. The cells were seeded in phenol red-free medium supplemented with 10% FBS, 100 units/ml penicillin, 100 μg/ml streptomycin, 2 mM L-glutamine mixture and sodium pyruvate (1 mM) for C4-2 cells and phenol red-free medium supplemented with 10% FBS, 100 units/ml penicillin, 100 μg/ml streptomycin and 2 mM L-glutamine mixture for 22Rv1 cells. The cells were grown at 37° C. in 5% CO2. Twenty four hours after seeding in the 96-well plates, the cells were treated with indicated compound or DMSO (vehicle). The culture medium was not changed during the time course of the assay. On Day zero and on Day 3, cell viability was determined using the MTT assay. MTT (10 μL, 5 mg/mL) was added to each well and incubated for 2 h at 37° C. The formazan crystal sediments were dissolved in 100 μL of DMSO, and the absorbance at 570 nm was measured using the BioTek Synergy 2 Microplate Reader (BioTek, Winooski, Vt.). […] IC50 values were calculated from nonlinear […] plots using GraphPad Prism5 software.

22Rv1 cells = assay: MTT cell viability assay, 22Rv1 cells; format: cell-based; settings: Day 3, 0.1 μM-10 μM, FIG. 6E
Procedure: as §4, §5

DLC1 mRNA in LNCaP cells = assay: In situ HDACi activity: DLC1 mRNA in LNCaP cells; format: cell-based; settings: 10 μM, 48 h, normalized to GAPDH mRNA, FIG. 2E
Procedure: (§6) FIGS. 2A-2F show measurement of intrinsic and in situ HDACi activities. […]. IC50 values were calculated from nonlinear regression plots using GraphPad Prism5 software. (2B) Enz, 1002 and 3-52 were tested against HeLa cell nuclear extract at 10 μM and 25 μM and TSA (1 μM) was used as positive control. […] Recombinant HDAC6 was incubated with each drug at the indicated concentrations. IC50 values were calculated from nonlinear regression plots using GraphPad Prism5 software. (2D) Enz, 1002 and 3-52 were tested against recombinant HDAC6 at 10 μM and 25 μM and TSA (1 μM) was used as positive control. […]
(§7) Cell Culture and Reagents. LNCaP and 22Rv1 cell lines were from American Type Culture Collection (Manassas, Va.). C4-2 cells were kindly provided by Dr. Edwin Sanchez (University of Toledo). LNCaP and C4-2 cells were routinely grown at 37° C. in 5% CO2 in RPMI 1640 medium supplemented with 10% FBS (Invitrogen); 100 units/ml penicillin, 100 μg/ml streptomycin, 2 mM L-glutamine mixture (Invitrogen); and sodium pyruvate (1 mM) (Invitrogen). 22Rv1 cells were grown in RPMI 1640 medium supplemented with 10% FBS (Invitrogen); 100 units/ml penicillin, 100 μg/ml streptomycin, 2 mM L-glutamine mixture (Invitrogen). Affinity-purified rabbit anti-human antibody to AR (sc-816) and mouse anti-human antibody to GAPDH (sc-47724) were purchased from Santa Cruz Biotechnology (Santa Cruz, Calif.). Affinity-purified rabbit anti-human antibody to Hsp90 (C45G5) #4877 and rabbit anti-human antibody to acetylated lysine #9441 were purchased from Cell Signaling Technology. R1881 was kindly provided by Dr. Stephan Patrick (Karmanos Cancer Institute). All experiments were conducted using phenol-red free growth media. For hormone depletion, cells were grown in phenol-red free RPMI 1640 medium supplemented with 10% charcoal stripped FBS (Sigma-Aldrich) which was heat inactivated at 56° C. for thirty minutes, and a mixture of 100 units/ml penicillin, 100 μg/ml streptomycin and 2 mM L-glutamine for 96 h.
(§8) RNA isolation, Reverse Transcription, and Real Time PCR. Total RNA was isolated from cells using the RNeasy Mini Kit (Qiagen). Reverse transcription PCR was then performed using 500 ng of total RNA with random primers and using the high-capacity complementary DNA Archive kit (Applied Biosystems). The complementary DNA from this reaction was measured using quantitative real time PCR using the StepONE Plus Real Time PCR system (Life Technologies Corporation, Carlsbad, Calif.). All reactions were performed in triplicate and normalized to glyceraldehyde-3-phosphate-dehydrogenase values in the same samples. All primers and Taqman probes were purchased from the applied Biosystems inventory (Invitrogen) (Patki et al., 2015).
. […]

DLC1 mRNA in C4-2 cells = assay: In situ HDACi activity: DLC1 mRNA in C4-2 cells; format: cell-based; settings: 48 h, normalized to GAPDH mRNA, FIG. 2F
Procedure: as §6, §7, §8
. […]

p21 mRNA in C4-2 cells = assay: p21 mRNA induction in C4-2 cells; settings: 48 h, FIG. 5B
p21 mRNA in LNCaP cells = assay: p21 mRNA induction in LNCaP cells; settings: 10 μM, 48 h, FIG. 5A
[2] = tested on: AR chromatin association at KLK3 ARE enhancer elements; assay: ChIP of AR at KLK3 enhancer in C4-2 cells; settings: compound 10 μM, R1881 1 nM or 10 nM, 2 h, FIG. 3C
Procedure: (3C) C4-2 cells plated in hormone-depleted medium were treated with either vehicle, R1881, or the indicated compound for 2 h. Cells were harvested and subjected to ChIP using AR antibody. Taqman probes targeting ARE enhancer elements associated with the KLK3 gene were used to quantify the immunoprecipitated chromatin.
Chromatin Immunoprecipitation (ChIP). […] The ChIP signals were measured by quantitative real time PCR analysis of the immunoprecipitated products.
As a target site for the ChIP assay, the well-established AR binding enhancer elements located 4 kb upstream of the transcription initiation site of the KLK3 gene was chosen.

Hsp90 = assay: Western blot of Hsp90 protein in C4-2 cells; settings: 1 μM to 10 μM, 24 h, relative to GAPDH, FIG. 4B
Procedure: (§9) Cells were then harvested for western blot analysis using antibody to AR (4A), HSP90 (4B), Acetyl-Lysine (4C) or GAPDH (loading control). ImageJ software was used to determine the intensities of the bands relative to the vehicle control for each protein. The values were then divided by the values for GAPDH within the same samples.
(§10) Western Blot Analysis. Cells were washed once with phosphate buffered saline (PBS) and then lysed with RIPA buffer (150 mM NaCl, 1% Nonidet P-40, 0.5% sodium deoxycholate, 0.1% SDS, 50 mM Tris of pH 8.0) containing a protease inhibitor cocktail (Pierce, Thermo Fisher Scientific). The cell lysates were then incubated on ice for 40 minutes. Total protein concentrations were estimated using the Bradford Assay (Bio-Rad). Protein samples (10-40 ug) were heated at 95° C. for 5 minutes and resolved by electrophoresis on 8% polyacrylamide-SDS gels and electrophoretically transferred to PVDF membranes (Millipore, Billerica, Mass.). The membranes were then probed overnight at 4° C. with the appropriate primary antibody followed by the appropriate horseradish peroxidase-conjugated secondary antibody.

[3] = tested on: 55 KDa polypeptide (putative Hsp90 fragment); assay: Western blot of acetylated lysine in C4-2 cells; settings: 24 h, acetylated lysine antibody, FIG. 4C
Procedure: as §9, §10

Structure (SMILES)	inhibition of nuclear HDAC activity [1]	inhibitory activity against HDAC6 (human recombinant HDAC6)	effect on C4-2 cell growth (C4-2 cells; MTT, Day 3, up to 10 μM, FIG. 6A)	effect on growth of 22Rv1 cells (22Rv1 cells)	DLC1 mRNA expression (DLC1 mRNA in LNCaP cells)	DLC1 mRNA expression (DLC1 mRNA in C4-2 cells)	cell death (viable cells below the number on Day 0) (C4-2 cells; C4-2 cells, 5 μM, MTT Day 3 relative to Day 0, FIG. 6C)	p21 mRNA expression (p21 mRNA in C4-2 cells)	p21 mRNA expression (p21 mRNA in LNCaP cells)	chromatin association of AR (ChIP signal) [2]	Hsp90 protein level (degradation) (Hsp90)	hyper-acetylation of a 55 KDa polypeptide [3]
CCOC(=O)/C=C/c1ccc(N2C(=S)N(c3ccc(C#N)c(C(F)(F)F)c3)C(=O)C2(C)C)cc1F [Compound 1002, (E)-ethyl-3-(4-(3-(4-cyano-3-(trifluoromethyl)phenyl)-5,5-dimethyl-4-oxo-2-thioxoimidazolidin-1-yl)-2-fluorophenyl)acrylate]	did not inhibit nuclear HDAC activity even up to a concentration of 25 μM	did not show significant inhibitory activity	unable to appreciably inhibit C4-2 cell growth	modest effect at high concentrations								
O=C(CCCCCCC(=O)Nc1ccccc1)NO [SAHA, suberanilohydroxamic acid, reference compound]					strongly up-regulated	strongly up-regulated	caused cell death	induced p21 mRNA	induced p21 mRNA	basal ChIP signal	a decrease in Hsp90 was evident at the higher doses	hyper-acetylation of a 55 KDa polypeptide

Reference: US9963433B2, “Anticancer drugs including the chemical structures of an androgen receptor ligand and a histone deacetylase inhibitor” (Wayne State University, priority 2016, dated 2018)
